According to ChEMBL document CHEMBL4507287, “Data for DCP probe MRL-650” (2021):

Legend:
[1] = test system: Epidermal growth factor receptor (Homo sapiens), P00533 [L858R,T790M]; settings: Compound concentration 1000.0 nM
[2] = molecular target: Casein kinase I isoform alpha (Homo sapiens) (UniProt P48729); settings: Compound concentration 1000.0 nM
[3] = molecular target: Serine/threonine-protein kinase WNK3 (Homo sapiens) (UniProt Q9BYP7); settings: Compound concentration 1000.0 nM
[4] = molecular target: Myosin light chain kinase 2, skeletal/cardiac muscle (Homo sapiens) (UniProt Q9H1R3); settings: Compound concentration 1000.0 nM
[5] = molecular target: Serine/threonine-protein kinase 33 (Homo sapiens) (UniProt Q9BYT3); settings: Compound concentration 1000.0 nM
[6] = molecular target: Cytoplasmic tyrosine-protein kinase BMX (Homo sapiens) (UniProt P51813); settings: Compound concentration 1000.0 nM
[7] = molecular target: Dual specificity mitogen-activated protein kinase kinase 4 (Homo sapiens) (UniProt P45985); settings: Compound concentration 1000.0 nM
[8] = molecular target: Serine/threonine-protein kinase Sgk2 (Homo sapiens) (UniProt Q9HBY8); settings: Compound concentration 1000.0 nM
[9] = molecular target: Serine/threonine-protein kinase RIO1 (Homo sapiens) (UniProt Q9BRS2); settings: Compound concentration 1000.0 nM
[10] = molecular target: Dual specificity mitogen-activated protein kinase kinase 1 (Homo sapiens) (UniProt Q02750); settings: Compound concentration 1000.0 nM
[11] = molecular target: Maternal embryonic leucine zipper kinase (Homo sapiens) (UniProt Q14680); settings: Compound concentration 1000.0 nM
[12] = molecular target: Serine/threonine-protein kinase TAO2 (Homo sapiens) (UniProt Q9UL54); settings: Compound concentration 1000.0 nM
[13] = molecular target: Sodium-dependent dopamine transporter (Homo sapiens, UniProt Q01959); settings: Compound concentration 10.0 uM
[14] = molecular target: Serine/threonine-protein kinase VRK2 (Homo sapiens) (UniProt Q86Y07); settings: Compound concentration 1000.0 nM
[15] = molecular target: Ephrin type-A receptor 1 (Homo sapiens) (UniProt P21709); settings: Compound concentration 1000.0 nM
[16] = molecular target: Tyrosine-protein kinase ZAP-70 (Homo sapiens) (UniProt P43403); settings: Compound concentration 1000.0 nM
[17] = molecular target: Serine/threonine-protein kinase 16 (Homo sapiens) (UniProt O75716); settings: Compound concentration 1000.0 nM
[18] = molecular target: Serine/threonine-protein kinase RIO2 (Homo sapiens) (UniProt Q9BVS4); settings: Compound concentration 1000.0 nM
[19] = molecular target: SRSF protein kinase 2 (Homo sapiens) (UniProt P78362); settings: Compound concentration 1000.0 nM
[20] = molecular target: Serine/threonine-protein kinase PRP4 homolog (Homo sapiens) (UniProt Q13523); settings: Compound concentration 1000.0 nM
[21] = molecular target: Ribosomal protein S6 kinase alpha-6 (Homo sapiens) (UniProt Q9UK32); settings: Compound concentration 1000.0 nM
[22] = molecular target: Serine/threonine-protein kinase MARK1 (Homo sapiens) (UniProt Q9P0L2); settings: Compound concentration 1000.0 nM
[23] = molecular target: Serine/threonine-protein kinase PLK2 (Homo sapiens) (UniProt Q9NYY3); settings: Compound concentration 1000.0 nM
[24] = molecular target: 1-phosphatidylinositol 3-phosphate 5-kinase (Homo sapiens) (UniProt Q9Y2I7); settings: Compound concentration 1000.0 nM
[25] = molecular target: Serine/threonine-protein kinase Sgk1 (Homo sapiens) (UniProt O00141); settings: Compound concentration 1000.0 nM
[26] = test system: Tyrosine-protein kinase ABL1 (Homo sapiens), P00519 [F317I]; settings: Compound concentration 1000.0 nM
[27] = molecular target: Calcium/calmodulin-dependent protein kinase type II subunit delta (Homo sapiens) (UniProt Q13557); settings: Compound concentration 1000.0 nM
[28] = molecular target: Serine/threonine-protein kinase N2 (Homo sapiens) (UniProt Q16513); settings: Compound concentration 1000.0 nM
[29] = molecular target: Mitogen-activated protein kinase kinase kinase 2 (Homo sapiens) (UniProt Q9Y2U5); settings: Compound concentration 1000.0 nM
[30] = molecular target: Casein kinase I isoform alpha-like (Homo sapiens) (UniProt Q8N752); settings: Compound concentration 1000.0 nM
[31] = molecular target: Serine/threonine-protein kinase D1 (Homo sapiens) (UniProt Q15139); settings: Compound concentration 1000.0 nM
[32] = molecular target: Testis-specific serine/threonine-protein kinase 1 (Homo sapiens) (UniProt Q9BXA7); settings: Compound concentration 1000.0 nM
[33] = molecular target: Serine/threonine-protein kinase DCLK2 (Homo sapiens) (UniProt Q8N568); settings: Compound concentration 1000.0 nM
[34] = test system: Tyrosine-protein kinase ABL1 (Homo sapiens), P00519 [F317I]; settings: Compound concentration 1000.0 nM; remark: listed apart in the source
[35] = molecular target: D(1B) dopamine receptor (Homo sapiens) (UniProt P21918); settings: Compound concentration 10.0 uM
[36] = molecular target: 5-hydroxytryptamine receptor 5A (Homo sapiens) (UniProt P47898); settings: Compound concentration 10.0 uM
[37] = molecular target: Tyrosine-protein kinase Fgr (Homo sapiens) (UniProt P09769); settings: Compound concentration 1000.0 nM
[38] = molecular target: Non-receptor tyrosine-protein kinase TNK1 (Homo sapiens) (UniProt Q13470); settings: Compound concentration 1000.0 nM
[39] = molecular target: Angiopoietin-1 receptor (Homo sapiens) (UniProt Q02763); settings: Compound concentration 1000.0 nM
[40] = molecular target: NUAK family SNF1-like kinase 2 (Homo sapiens) (UniProt Q9H093); settings: Compound concentration 1000.0 nM
[41] = molecular target: Cyclin-dependent kinase 17 (Homo sapiens) (UniProt Q00537); settings: Compound concentration 1000.0 nM
[42] = molecular target: Tyrosine-protein kinase receptor UFO (Homo sapiens) (UniProt P30530); settings: Compound concentration 1000.0 nM
[43] = test system: Proto-oncogene tyrosine-protein kinase receptor Ret (Homo sapiens), P07949 [V804M]; settings: Compound concentration 1000.0 nM
[44] = molecular target: Ephrin type-A receptor 7 (Homo sapiens) (UniProt Q15375); settings: Compound concentration 1000.0 nM
[45] = molecular target: Serine/threonine-protein kinase 3 (Homo sapiens) (UniProt Q13188); settings: Compound concentration 1000.0 nM

Sequence of Tyrosine-protein kinase ABL1 (Homo sapiens), P00519 [F317I] (P00519 whole entry F317I): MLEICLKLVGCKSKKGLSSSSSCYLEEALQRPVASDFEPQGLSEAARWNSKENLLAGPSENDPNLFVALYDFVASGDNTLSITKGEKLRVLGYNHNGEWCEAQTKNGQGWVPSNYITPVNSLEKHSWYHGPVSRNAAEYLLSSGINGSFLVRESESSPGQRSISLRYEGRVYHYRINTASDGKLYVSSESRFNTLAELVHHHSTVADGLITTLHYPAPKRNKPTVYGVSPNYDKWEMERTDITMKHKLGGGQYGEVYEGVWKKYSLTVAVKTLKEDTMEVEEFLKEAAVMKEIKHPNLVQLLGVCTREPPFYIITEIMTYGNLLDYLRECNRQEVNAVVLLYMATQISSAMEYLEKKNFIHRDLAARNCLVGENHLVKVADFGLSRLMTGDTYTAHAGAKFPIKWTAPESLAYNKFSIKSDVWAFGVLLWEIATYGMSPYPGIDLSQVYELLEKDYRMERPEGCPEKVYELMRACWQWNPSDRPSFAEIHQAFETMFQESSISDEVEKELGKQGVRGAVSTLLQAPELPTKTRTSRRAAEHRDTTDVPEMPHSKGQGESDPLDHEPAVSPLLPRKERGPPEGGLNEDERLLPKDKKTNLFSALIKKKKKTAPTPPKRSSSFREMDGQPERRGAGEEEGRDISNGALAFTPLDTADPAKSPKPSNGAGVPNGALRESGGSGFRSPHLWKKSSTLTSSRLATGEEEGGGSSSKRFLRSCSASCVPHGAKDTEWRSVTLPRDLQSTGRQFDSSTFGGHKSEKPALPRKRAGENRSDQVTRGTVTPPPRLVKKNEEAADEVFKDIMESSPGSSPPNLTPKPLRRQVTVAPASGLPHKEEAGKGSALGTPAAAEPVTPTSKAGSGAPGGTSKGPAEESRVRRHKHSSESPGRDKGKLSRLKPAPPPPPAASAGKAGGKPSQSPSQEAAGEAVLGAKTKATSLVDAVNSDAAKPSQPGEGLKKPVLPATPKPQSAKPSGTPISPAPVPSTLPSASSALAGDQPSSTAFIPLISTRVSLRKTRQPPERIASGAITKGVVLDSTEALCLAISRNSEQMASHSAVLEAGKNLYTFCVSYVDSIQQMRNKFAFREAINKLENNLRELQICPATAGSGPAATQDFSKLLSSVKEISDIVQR
Sequence of Cyclin-dependent kinase 17 (Homo sapiens) (Q00537 whole entry, looked up): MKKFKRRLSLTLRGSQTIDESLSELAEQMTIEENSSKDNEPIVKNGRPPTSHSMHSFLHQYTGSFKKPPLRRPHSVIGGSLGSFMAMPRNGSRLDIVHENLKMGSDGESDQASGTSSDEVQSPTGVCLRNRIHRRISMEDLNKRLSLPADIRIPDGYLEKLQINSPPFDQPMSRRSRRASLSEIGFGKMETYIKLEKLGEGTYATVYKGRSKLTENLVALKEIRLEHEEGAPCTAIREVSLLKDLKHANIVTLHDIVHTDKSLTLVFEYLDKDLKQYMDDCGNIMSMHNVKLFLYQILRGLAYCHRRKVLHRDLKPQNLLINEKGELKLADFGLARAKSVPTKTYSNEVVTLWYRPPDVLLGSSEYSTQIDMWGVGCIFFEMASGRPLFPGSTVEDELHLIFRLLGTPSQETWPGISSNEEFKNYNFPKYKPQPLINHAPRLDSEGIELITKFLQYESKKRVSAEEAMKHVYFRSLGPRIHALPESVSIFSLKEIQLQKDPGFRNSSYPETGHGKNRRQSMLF
Sequence of Serine/threonine-protein kinase RIO2 (Homo sapiens) (Q9BVS4 whole entry, looked up): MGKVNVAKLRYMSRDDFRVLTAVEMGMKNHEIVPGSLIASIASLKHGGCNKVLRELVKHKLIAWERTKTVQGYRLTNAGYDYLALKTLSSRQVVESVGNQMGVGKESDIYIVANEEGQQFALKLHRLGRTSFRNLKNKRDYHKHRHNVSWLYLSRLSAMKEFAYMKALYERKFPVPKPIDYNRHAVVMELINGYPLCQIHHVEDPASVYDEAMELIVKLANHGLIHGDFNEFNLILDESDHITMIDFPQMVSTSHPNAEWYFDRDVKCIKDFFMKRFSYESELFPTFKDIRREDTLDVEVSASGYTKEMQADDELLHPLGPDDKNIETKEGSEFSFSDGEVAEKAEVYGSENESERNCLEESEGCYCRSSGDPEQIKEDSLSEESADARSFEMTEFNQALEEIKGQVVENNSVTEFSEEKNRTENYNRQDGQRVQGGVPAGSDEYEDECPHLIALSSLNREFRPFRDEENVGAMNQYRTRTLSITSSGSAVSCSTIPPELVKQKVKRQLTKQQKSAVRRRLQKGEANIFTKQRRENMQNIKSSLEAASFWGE
Sequence of Serine/threonine-protein kinase Sgk1 (Homo sapiens) (O00141 whole entry): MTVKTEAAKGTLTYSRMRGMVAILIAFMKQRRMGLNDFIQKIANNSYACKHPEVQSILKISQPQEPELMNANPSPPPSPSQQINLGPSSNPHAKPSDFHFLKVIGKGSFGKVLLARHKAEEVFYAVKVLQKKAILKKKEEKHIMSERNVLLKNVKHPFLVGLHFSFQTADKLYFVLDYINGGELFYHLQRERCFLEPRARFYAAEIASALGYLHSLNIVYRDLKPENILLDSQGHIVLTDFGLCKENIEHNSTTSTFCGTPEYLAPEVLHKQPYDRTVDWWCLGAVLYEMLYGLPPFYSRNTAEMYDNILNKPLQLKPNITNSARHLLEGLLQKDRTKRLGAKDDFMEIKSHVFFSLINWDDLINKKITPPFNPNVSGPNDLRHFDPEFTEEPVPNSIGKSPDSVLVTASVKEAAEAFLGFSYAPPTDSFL
Sequence of D(1B) dopamine receptor (Homo sapiens) (P21918 whole entry): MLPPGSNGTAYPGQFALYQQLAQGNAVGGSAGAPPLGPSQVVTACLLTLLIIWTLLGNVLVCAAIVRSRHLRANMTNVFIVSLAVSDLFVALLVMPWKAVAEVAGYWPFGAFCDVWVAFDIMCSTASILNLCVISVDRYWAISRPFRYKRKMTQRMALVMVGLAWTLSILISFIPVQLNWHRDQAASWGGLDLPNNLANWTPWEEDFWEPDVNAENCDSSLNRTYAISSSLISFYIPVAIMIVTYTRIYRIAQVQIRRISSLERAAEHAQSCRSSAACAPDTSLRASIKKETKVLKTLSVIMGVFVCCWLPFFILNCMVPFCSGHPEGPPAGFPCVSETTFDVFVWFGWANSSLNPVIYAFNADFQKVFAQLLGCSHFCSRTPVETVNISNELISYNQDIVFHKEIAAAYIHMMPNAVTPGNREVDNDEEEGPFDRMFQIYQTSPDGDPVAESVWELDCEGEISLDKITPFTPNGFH
Sequence of Ephrin type-A receptor 1 (Homo sapiens) (P21709 whole entry): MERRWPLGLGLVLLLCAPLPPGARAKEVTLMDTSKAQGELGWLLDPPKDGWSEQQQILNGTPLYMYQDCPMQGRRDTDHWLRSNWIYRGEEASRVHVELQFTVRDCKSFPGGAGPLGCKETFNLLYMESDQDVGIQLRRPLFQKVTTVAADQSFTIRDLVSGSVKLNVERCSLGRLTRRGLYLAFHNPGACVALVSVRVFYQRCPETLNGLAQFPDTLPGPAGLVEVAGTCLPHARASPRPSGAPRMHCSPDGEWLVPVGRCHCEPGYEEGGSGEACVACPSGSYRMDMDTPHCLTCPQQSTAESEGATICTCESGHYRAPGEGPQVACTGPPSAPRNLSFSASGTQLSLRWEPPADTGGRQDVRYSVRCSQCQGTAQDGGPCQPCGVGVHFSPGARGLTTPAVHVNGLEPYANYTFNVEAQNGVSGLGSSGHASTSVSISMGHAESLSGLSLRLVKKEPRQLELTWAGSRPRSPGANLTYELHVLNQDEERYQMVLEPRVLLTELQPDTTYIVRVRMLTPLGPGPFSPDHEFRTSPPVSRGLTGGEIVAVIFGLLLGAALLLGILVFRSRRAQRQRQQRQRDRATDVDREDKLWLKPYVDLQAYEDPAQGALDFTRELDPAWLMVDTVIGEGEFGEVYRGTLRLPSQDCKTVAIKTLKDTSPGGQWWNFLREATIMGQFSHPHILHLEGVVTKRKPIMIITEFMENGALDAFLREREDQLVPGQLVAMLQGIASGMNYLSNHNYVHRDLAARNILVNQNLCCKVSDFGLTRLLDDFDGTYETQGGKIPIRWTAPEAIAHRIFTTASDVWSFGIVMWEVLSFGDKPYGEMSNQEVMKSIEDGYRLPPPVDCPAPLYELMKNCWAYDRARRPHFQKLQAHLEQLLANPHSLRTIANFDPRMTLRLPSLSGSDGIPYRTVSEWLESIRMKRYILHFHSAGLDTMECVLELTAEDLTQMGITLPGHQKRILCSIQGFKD
Sequence of Serine/threonine-protein kinase D1 (Homo sapiens) (Q15139 whole entry): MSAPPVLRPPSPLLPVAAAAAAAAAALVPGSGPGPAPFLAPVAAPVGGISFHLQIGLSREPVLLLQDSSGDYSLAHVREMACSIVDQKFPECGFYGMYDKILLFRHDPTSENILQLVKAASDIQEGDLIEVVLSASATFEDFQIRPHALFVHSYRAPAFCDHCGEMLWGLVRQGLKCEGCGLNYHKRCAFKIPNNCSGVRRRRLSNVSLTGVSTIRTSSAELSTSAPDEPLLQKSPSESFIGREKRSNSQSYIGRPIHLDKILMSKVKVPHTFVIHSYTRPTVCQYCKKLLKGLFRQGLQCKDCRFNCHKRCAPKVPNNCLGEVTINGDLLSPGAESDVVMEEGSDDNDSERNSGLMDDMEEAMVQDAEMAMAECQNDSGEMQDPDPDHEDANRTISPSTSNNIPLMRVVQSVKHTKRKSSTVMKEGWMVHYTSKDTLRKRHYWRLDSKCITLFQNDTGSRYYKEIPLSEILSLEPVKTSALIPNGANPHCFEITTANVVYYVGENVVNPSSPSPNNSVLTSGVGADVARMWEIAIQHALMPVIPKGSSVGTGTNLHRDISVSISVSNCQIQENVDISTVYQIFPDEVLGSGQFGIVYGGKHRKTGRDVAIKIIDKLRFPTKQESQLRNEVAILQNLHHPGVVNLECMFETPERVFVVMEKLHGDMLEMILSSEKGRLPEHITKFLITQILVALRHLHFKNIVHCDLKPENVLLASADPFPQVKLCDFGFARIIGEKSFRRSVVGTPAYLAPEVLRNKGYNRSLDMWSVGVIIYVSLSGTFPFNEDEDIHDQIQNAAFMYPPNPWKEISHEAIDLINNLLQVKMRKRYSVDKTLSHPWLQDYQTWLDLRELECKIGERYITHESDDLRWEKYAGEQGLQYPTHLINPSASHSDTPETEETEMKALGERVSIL

CC(=O)Nc1c(C(C)=O)c(=O)n(C)c2nc(-c3ccc(Cl)cc3Cl)c(-c3ccc(Cl)cc3)cc12 [NAPHTHYRIDINONE]
residual activity [1]: 100% | residual activity [2]: 100% | residual activity [3]: 100% | residual activity [4]: 100% | residual activity [5]: 100% | residual activity [6]: 100% | residual activity [7]: 100% | residual activity [8]: 100% | residual activity [9]: 100% | residual activity [10]: 100% | residual activity [11]: 100% | residual activity [12]: 88% | inhibition [13]: 36.4% | residual activity [14]: 100% | residual activity [15]: 100% | residual activity [16]: 100% | residual activity [17]: 100% | residual activity [18]: 100% | residual activity [19]: 100% | residual activity [20]: 100% | residual activity [21]: 100% | residual activity [22]: 100% | residual activity [23]: 100% | residual activity [24]: 100% | residual activity [25]: 100% | residual activity [26]: 77% | residual activity [27]: 100% | residual activity [28]: 100% | residual activity [29]: 100% | residual activity [30]: 100% | residual activity [31]: 100% | residual activity [32]: 100% | residual activity [33]: 100% | residual activity [34]: 94% | inhibition [35]: 5.24% | inhibition [36]: 14.3% | residual activity [37]: 100% | residual activity [38]: 100% | residual activity [39]: 91% | residual activity [40]: 100% | residual activity [41]: 100% | residual activity [42]: 100% | residual activity [43]: 100% | residual activity [44]: 100% | residual activity [45]: 100%

CC(=O)c1c(NS(C)(=O)=O)c2cc(-c3ccc(Cl)cc3)c(-c3ccc(Cl)cc3Cl)nc2n(C)c1=O [MRL-CB1-NC]
residual activity [1]: 89% | residual activity [2]: 100% | residual activity [3]: 80% | residual activity [4]: 98% | residual activity [5]: 100% | residual activity [6]: 100% | residual activity [7]: 89% | residual activity [8]: 92% | residual activity [9]: 100% | residual activity [10]: 81% | residual activity [11]: 100% | residual activity [12]: 97% | inhibition [13]: 67.1% | residual activity [14]: 100% | residual activity [15]: 100% | residual activity [16]: 100% | residual activity [17]: 100% | residual activity [18]: 100% | residual activity [19]: 100% | residual activity [20]: 83% | residual activity [21]: 90% | residual activity [22]: 100% | residual activity [23]: 96% | residual activity [24]: 66% | residual activity [25]: 100% | residual activity [26]: 76% | residual activity [27]: 100% | residual activity [28]: 76% | residual activity [29]: 93% | residual activity [30]: 100% | residual activity [31]: 100% | residual activity [32]: 100% | residual activity [33]: 96% | residual activity [34]: 85% | inhibition [35]: 44.5% | inhibition [36]: 39.9% | residual activity [37]: 100% | residual activity [38]: 100% | residual activity [39]: 90% | residual activity [40]: 89% | residual activity [41]: 100% | residual activity [42]: 100% | residual activity [43]: 100% | residual activity [44]: 100% | residual activity [45]: 100%
